Test results: US7759355B2, “Adenosine A2A receptor antagonists for treating restless legs syndrome or nocturnal myoclonus” (Kyowa Hakko Kirin Co., Ltd., priority 2002, dated 2010)

Assays:
[1] = system: patients with advanced Parkinson's disease; animal models; details: animal models and early Phase II studies in patients with advanced Parkinson's disease; cited from earlier work
[2] = system: patients with moderate to severe RLS; experiment: Human clinical trial, RLS treatment with an A2A antagonist (IRLSRS total score and total PLMS index by polysomnography); type: in vivo; details: 80 mg once a day for 6 weeks
Method: In order to assess the efficacy of a representative A2A antagonist in treating RLS, a clinical trial was initiated and conducted in accordance with standard procedures. Briefly, the total score in International RLS Rating Scale (IRLSRS) and total PLMS index (polysomnography; PLMS index represents the number of periodic limb movements per hour of sleep) of the patients were measured to evaluate the efficacy of Compound A in RLS [Understanding and Diagnosing Restless Legs Syndrome (2003), Restless Legs Syndrome Foundation, 819 Second Street, SW Rochester, Minn. 55902].
Scoring for IRLSRS was made according to the following Instructions for Examiner (Maximum IRLSRS total score is 40).
The Examiner was instructed to have the patient rate his/her symptoms for the following ten questions. The patient and not the examiner made the ratings, but the examiner was available to clarify any misunderstandings the patient may have had about the questions. Either the examiner or the patient marked the answers on the form. In questions 1, 2, 4, 5, 6, 9 and 10, the following scoring was used: (4) Very severe; (3) Severe; (2) Moderate; (1) Mild; and (0) None.
Patients diagnosed with idiopathic RLS were withheld from the medication from the time of screening until the end of treatment. After tapering all RLS medications, patients were screened for eligibility. At Week −2, patients were admitted to the clinic on the night preceding the visit day to be adapted to the sleep environment of the laboratory. After screening, IRLSRS total score and total PLMS index of the patients were measured on Day −1 in order to establish a baseline and to assess the range of RLS fluctuation. Only patients with moderate to severe RLS (15 and more IRLSRS total scores) were enrolled in the study.
Treatment with Compound A (80 mg, once a day) began on the day following Day −1 visit and continued for the next 6 weeks. The last dose of Compound A was taken on the day of Week 6 visit. At Week 8, patients received RLS assessments (IRLSRS total score and total PLMS index). The inhibition ratio for each score was calculated by the following equation. Inhibition Ratio(%)={[(Score at Day−1)−(Score at Week 8)]/(Score at Day−1)}×100

[3] = system: parkinsonian monkeys; details: Neurology, 52, 1673-1677 (1999); cited from earlier work
[4] = Week 8 vs Day-1 baseline, N = 4

SMILES | Amelioration of Parkinsonian symptoms [1] | IRLSRS Total Score, Inhibition Ratio [2, 4] [%] | Total PLMS Index, Inhibition Ratio [2, 4] [%] | IRLSRS Total Score, Week 8, mean (SD) ([2]; assessed at Week 8, N = 4, baseline (Day-1) 32.5 (4.39), maximum score 40) | Total PLMS Index, Week 8, mean (SD) ([2]; assessed at Week 8, N = 4, baseline (Day-1) 45 (15.41), periodic limb movements per hour of sleep) | Effect on RLS symptoms ([2]; patients with moderate to severe RLS) | Hyperactivity and dyskinesia [3]
CCn1c(=O)c2c(nc(/C=C/c3ccc(OC)c(OC)c3)n2C)n(CC)c1=O [Compound A, (E)-8-(3,4-dimethoxystyryl)-1,3-diethyl-7-methylxanthine] | efficacious in ameliorating Parkinsonian symptoms | 29.2 | 45.2 | 23 (8.04) | 24.67 (23.89) | relief of RLS symptoms and improvement | 
CCn1c(=O)c2c(nc(/C=C/c3ccc(OC)c(OC)c3)n2C)n(CC)c1=O [KW-6002] |  |  |  |  |  |  | without producing hyperactivity and provoking dyskinesia
